In assay [1] the test system is STK. Briefly: DiscoveRx STK HitHunter Assay. The class given is biochemical.
For assay [2], the system named is STK. Briefly: Fluorescent Polarization STK Assay (FP Assay). The class given is biochemical.

Take `COC1C(N(C)CC(=O)O)CC2OC1(C)n1c3ccccc3c3c4c(c5c6ccccc6n2c5c31)C(=O)NC4` (stereo not shown) [STA-CM, N-carboxymethylstaurosporine]: the IC50 in assay [1] was 92 nM; in assay [2], 220 nM.
As to `CN[C@@H]1C[C@H]2O[C@@](C)([C@@H]1OC)n1c3ccccc3c3c4c(c5c6ccccc6n2c5c31)C(=O)NC4` [staurosporine], the IC50 in assay [1] worked out at 9 nM; in assay [2] it was 22 nM.

The values above are taken from patent US6770451B2, “Screening for enzyme inhibitors” (Discoverx, Inc., priority 2001, dated 2004).
